Source: PubChem BioAssay (NCI)
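Assay format: 96-well plates, 48-hour exposure. The concentration for 50% growth inhibition is given as GI50. TGI marks complete inhibition of growth.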

Columns and labels:
Experiment in all cases: NCI tumour cell line growth inhibition, 48 h
A549 NSCLC = test system: A549 NSCLC
K-562 leukemia = test system: K-562 leukemia
SR leukemia = test system: SR leukemia
SF-268 CNS = test system: SF-268 CNS
786-0 renal = test system: 786-0 renal
SNB-75 CNS = test system: SNB-75 CNS
MOLT-4 leukemia = test system: MOLT-4 leukemia
UACC-62 melanoma = test system: UACC-62 melanoma
M14 melanoma = test system: M14 melanoma
PC-3 prostate = test system: PC-3 prostate
SK-MEL-2 melanoma = test system: SK-MEL-2 melanoma
MDA-MB-435 = test system: MDA-MB-435
MDA-MB-231 breast = test system: MDA-MB-231 breast
IGROV1 ovarian = test system: IGROV1 ovarian
MALME-3M melanoma = test system: MALME-3M melanoma
TK-10 renal = test system: TK-10 renal
OVCAR-4 ovarian = test system: OVCAR-4 ovarian
HS 578T breast = test system: HS 578T breast
CCRF-CEM leukemia = test system: CCRF-CEM leukemia
U251 CNS = test system: U251 CNS
UO-31 renal = test system: UO-31 renal
A498 renal = test system: A498 renal
SF-295 CNS = test system: SF-295 CNS
SF-539 CNS = test system: SF-539 CNS
OVCAR-8 ovarian = test system: OVCAR-8 ovarian
COLO 205 colon = test system: COLO 205 colon
CAKI-1 renal = test system: CAKI-1 renal
NCI-H460 lung = test system: NCI-H460 lung
DU-145 prostate = test system: DU-145 prostate

**Q.** Which GI50 (A549 NSCLC) does the source give for `C/C(=N/NC(N)=S)c1ccc(Nc2nc(SCC(C)C)nc(-c3ccc(F)cc3)c2C#N)cc1` here?
**A.** 0.488 µM

**Q.** And the TGI (A549 NSCLC)?
**A.** 10.9 µM

**Q.** What about the GI50 (K-562 leukemia) of the same molecule?
**A.** 1.41 µM

**Q.** And the TGI (K-562 leukemia)?
**A.** > 100 µM

**Q.** What about the GI50 (SR leukemia) of the same molecule?
**A.** 0.509 µM

**Q.** What about the TGI (SR leukemia) of the same molecule?
**A.** 18.9 µM

**Q.** What about the GI50 (SF-268 CNS) of the same molecule?
**A.** 10.9 µM

**Q.** And the TGI (SF-268 CNS)?
**A.** 33.1 µM

**Q.** What about the GI50 (786-0 renal) of the same molecule?
**A.** 2.07 µM

**Q.** What about the TGI (786-0 renal) of the same molecule?
**A.** 13.8 µM

**Q.** And the GI50 (SNB-75 CNS)?
**A.** 0.418 µM

**Q.** What about the TGI (SNB-75 CNS) of the same molecule?
**A.** 3.95 µM

**Q.** What about the GI50 (MOLT-4 leukemia) of the same molecule?
**A.** 2.07 µM

**Q.** What about the TGI (MOLT-4 leukemia) of the same molecule?
**A.** 79.2 µM

**Q.** What about the GI50 (UACC-62 melanoma) of the same molecule?
**A.** 1.66 µM

**Q.** What about the TGI (UACC-62 melanoma) of the same molecule?
**A.** 10.5 µM

**Q.** And the GI50 (M14 melanoma)?
**A.** 4.41 µM

**Q.** What about the TGI (M14 melanoma) of the same molecule?
**A.** 26 µM

**Q.** What about the GI50 (PC-3 prostate) of the same molecule?
**A.** 0.59 µM

**Q.** And the TGI (PC-3 prostate)?
**A.** 5.52 µM

**Q.** What about the GI50 (SK-MEL-2 melanoma) of the same molecule?
**A.** 5.09 µM

**Q.** And the TGI (SK-MEL-2 melanoma)?
**A.** 19 µM

**Q.** What about the GI50 (MDA-MB-435) of the same molecule?
**A.** 2.14 µM

**Q.** And the TGI (MDA-MB-435)?
**A.** 17.4 µM

**Q.** What about the GI50 (MDA-MB-231 breast) of the same molecule?
**A.** 5.91 µM

**Q.** And the TGI (MDA-MB-231 breast)?
**A.** 25.9 µM

**Q.** And the GI50 (IGROV1 ovarian)?
**A.** 4.82 µM

**Q.** And the TGI (IGROV1 ovarian)?
**A.** 21.4 µM

**Q.** What about the GI50 (MALME-3M melanoma) of the same molecule?
**A.** 1.88 µM

**Q.** And the TGI (MALME-3M melanoma)?
**A.** 11.6 µM

**Q.** What about the GI50 (TK-10 renal) of the same molecule?
**A.** 3.56 µM

**Q.** And the TGI (TK-10 renal)?
**A.** 18.9 µM

**Q.** What about the GI50 (OVCAR-4 ovarian) of the same molecule?
**A.** 0.329 µM

**Q.** And the TGI (OVCAR-4 ovarian)?
**A.** 2.23 µM

**Q.** And the GI50 (HS 578T breast)?
**A.** 3.08 µM

**Q.** And the TGI (HS 578T breast)?
**A.** 54.1 µM

**Q.** And the GI50 (CCRF-CEM leukemia)?
**A.** 5.83 µM

**Q.** What about the TGI (CCRF-CEM leukemia) of the same molecule?
**A.** > 100 µM

**Q.** What about the GI50 (U251 CNS) of the same molecule?
**A.** 0.77 µM

**Q.** And the TGI (U251 CNS)?
**A.** 11 µM

**Q.** And the GI50 (UO-31 renal)?
**A.** 2.75 µM

**Q.** What about the TGI (UO-31 renal) of the same molecule?
**A.** 15.4 µM

**Q.** What about the GI50 (A498 renal) of the same molecule?
**A.** 2.99 µM

**Q.** And the TGI (A498 renal)?
**A.** 8.8 µM

**Q.** And the GI50 (SF-295 CNS)?
**A.** 0.598 µM

**Q.** And the TGI (SF-295 CNS)?
**A.** 2.69 µM

**Q.** And the GI50 (SF-539 CNS)?
**A.** 2.01 µM

**Q.** What about the TGI (SF-539 CNS) of the same molecule?
**A.** 10.4 µM

**Q.** What about the GI50 (OVCAR-8 ovarian) of the same molecule?
**A.** 3.22 µM

**Q.** And the TGI (OVCAR-8 ovarian)?
**A.** 26.4 µM

**Q.** What about the GI50 (COLO 205 colon) of the same molecule?
**A.** 1.18 µM

**Q.** And the TGI (COLO 205 colon)?
**A.** 22.1 µM

**Q.** And the GI50 (CAKI-1 renal)?
**A.** 1.65 µM

**Q.** And the TGI (CAKI-1 renal)?
**A.** 7.49 µM

**Q.** And the GI50 (NCI-H460 lung)?
**A.** 0.414 µM

**Q.** What about the TGI (NCI-H460 lung) of the same molecule?
**A.** 10.3 µM

**Q.** And the GI50 (DU-145 prostate)?
**A.** 1.55 µM

**Q.** What about the TGI (DU-145 prostate) of the same molecule?
**A.** 20.3 µM
